pIC50: −log10 of the molar value.
Test system: 362531-283-R-J2-PDC complex spheroid viability
Assay: Anticancer human tumor 362531-283-R-J2-PDC patient-derived colon adenocarcinoma cell line growth inhibition [RAS]
Conditions: for pIC50: curve of first compound; for viability, T/C: stronger effect = lower value; active = viability on the fitted dose curve at most 10% of control; inactive = the rest
Method in brief: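 Tumour cells grown as complex spheroids with HUVEC endothelial cells and mesenchymal stem cells, treated with RAS pathway inhibitor combinations. Each agent spans half-log steps from near clinical Cmax, or 10 microM where Cmax is unknown.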

[1] = second compound 0.000949 µM, first compound 0.0316 µM
[2] = second compound 0.000949 µM, first compound 0.1 µM
[3] = second compound 0.000949 µM, first compound 0.316 µM
[4] = second compound 0.000949 µM, first compound 1 µM
[5] = second compound 0.000949 µM, first compound 3.16 µM
[6] = second compound 0.000949 µM, first compound 10 µM
[7] = second compound 0.003 µM, first compound 0.0316 µM
[8] = second compound 0.003 µM, first compound 0.1 µM
[9] = second compound 0.003 µM, first compound 0.316 µM
[10] = second compound 0.003 µM, first compound 1 µM
[11] = second compound 0.003 µM, first compound 3.16 µM
[12] = second compound 0.003 µM, first compound 10 µM
[13] = second compound 0.00949 µM, first compound 0.0316 µM
[14] = second compound 0.00949 µM, first compound 0.1 µM
[15] = second compound 0.00949 µM, first compound 0.316 µM
[16] = second compound 0.00949 µM, first compound 1 µM
[17] = second compound 0.00949 µM, first compound 3.16 µM
[18] = second compound 0.00949 µM, first compound 10 µM
[19] = second compound 0.03 µM, first compound 0.0316 µM
[20] = second compound 0.03 µM, first compound 0.1 µM
[21] = second compound 0.03 µM, first compound 0.316 µM
[22] = second compound 0.03 µM, first compound 1 µM
[23] = second compound 0.03 µM, first compound 3.16 µM
[24] = second compound 0.03 µM, first compound 10 µM
[25] = second compound 0.0949 µM, first compound 0.0316 µM
[26] = second compound 0.0949 µM, first compound 0.1 µM
[27] = second compound 0.0949 µM, first compound 0.316 µM
[28] = second compound 0.0949 µM, first compound 1 µM
[29] = second compound 0.0949 µM, first compound 3.16 µM
[30] = second compound 0.0949 µM, first compound 10 µM
[31] = second compound 0.3 µM, first compound 0.0316 µM
[32] = second compound 0.3 µM, first compound 0.1 µM
[33] = second compound 0.3 µM, first compound 0.316 µM
[34] = second compound 0.3 µM, first compound 1 µM
[35] = second compound 0.3 µM, first compound 3.16 µM
[36] = second compound 0.3 µM, first compound 10 µM
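Also: spheroids exposed to the agents for 7 days before readout.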
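For viability, T/C in this document: luminescence viability as percent of DMSO vehicle control wells.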

CC(C)NCC(C(=O)N1CCN(c2ncnc3c2C(C)CC3O)CC1)c1ccc(Cl)cc1 (stereo not drawn) + CCn1c(-c2cccnc2C(C)OC)c2c3cc(ccc31)N1CCOC(CC(NC(=O)C(C(C)C)N(C)C(=O)C3(F)CCN(C(=O)C#CC(C)(C)N(C)C)CC3)C(=O)N3CCCC(N3)C(=O)OCC(C)(C)C2)C1
inactive: viability, T/C [1] 97.8% | viability, T/C [2] 106% | viability, T/C [3] 91.4% | viability, T/C [4] 94.4% | viability, T/C [5] 101% | viability, T/C [6] 93.5% | viability, T/C [7] 103% | viability, T/C [8] 105% | viability, T/C [9] 94.4% | viability, T/C [10] 92.9% | viability, T/C [11] 94.1% | viability, T/C [12] 101% | viability, T/C [13] 92.9% | viability, T/C [14] 100% | viability, T/C [15] 95% | viability, T/C [16] 98.8% | viability, T/C [17] 98.3% | viability, T/C [18] 99% | viability, T/C [19] 104% | viability, T/C [20] 87.4% | viability, T/C [21] 96.7% | viability, T/C [22] 86.2% | viability, T/C [23] 97.3% | viability, T/C [24] 100% | viability, T/C [25] 92.2% | viability, T/C [26] 91.1% | viability, T/C [27] 103% | viability, T/C [28] 88.1% | viability, T/C [29] 94.9% | viability, T/C [30] 94.3% | viability, T/C [31] 90.8% | viability, T/C [32] 94.1% | viability, T/C [33] 97.8% | viability, T/C [34] 91.9% | viability, T/C [35] 98.9% | viability, T/C [36] 92%
< 5.00: pIC50 (second compound 0.000949 µM) | pIC50 (second compound 0.003 µM) | pIC50 (second compound 0.00949 µM) | pIC50 (second compound 0.03 µM) | pIC50 (second compound 0.0949 µM) | pIC50 (second compound 0.3 µM)

CC(C)n1nc(-c2ccc3oc(N)nc3c2)c2c(N)ncnc21 + CCn1c(-c2cccnc2C(C)OC)c2c3cc(ccc31)N1CCOC(CC(NC(=O)C(C(C)C)N(C)C(=O)C3(F)CCN(C(=O)C#CC(C)(C)N(C)C)CC3)C(=O)N3CCCC(N3)C(=O)OCC(C)(C)C2)C1
7.16: pIC50 (second compound 0.03 µM)
7.15: pIC50 (second compound 0.000949 µM)
7.28: pIC50 (second compound 0.00949 µM)
7.07: pIC50 (second compound 0.003 µM)
7.18: pIC50 (second compound 0.3 µM)
inactive: viability, T/C (second compound 0.000949 µM, first compound 0.000316 µM) 95.5% | viability, T/C (second compound 0.000949 µM, first compound 0.001 µM) 98.7% | viability, T/C (second compound 0.000949 µM, first compound 0.00316 µM) 108% | viability, T/C (second compound 0.000949 µM, first compound 0.01 µM) 96.2% | viability, T/C [1] 75% | viability, T/C [2] 39.4% | viability, T/C (second compound 0.003 µM, first compound 0.000316 µM) 99.9% | viability, T/C (second compound 0.003 µM, first compound 0.001 µM) 92.8% | viability, T/C (second compound 0.003 µM, first compound 0.00316 µM) 102% | viability, T/C (second compound 0.003 µM, first compound 0.01 µM) 92.2% | viability, T/C [7] 74.5% | viability, T/C [8] 46.2% | viability, T/C (second compound 0.00949 µM, first compound 0.000316 µM) 98.9% | viability, T/C (second compound 0.00949 µM, first compound 0.001 µM) 108% | viability, T/C (second compound 0.00949 µM, first compound 0.00316 µM) 92.9% | viability, T/C (second compound 0.00949 µM, first compound 0.01 µM) 114% | viability, T/C [13] 57.3% | viability, T/C [14] 40.6% | viability, T/C (second compound 0.03 µM, first compound 0.000316 µM) 103% | viability, T/C (second compound 0.03 µM, first compound 0.001 µM) 93% | viability, T/C (second compound 0.03 µM, first compound 0.00316 µM) 107% | viability, T/C (second compound 0.03 µM, first compound 0.01 µM) 95.5% | viability, T/C [19] 63.9% | viability, T/C [20] 43.2% | viability, T/C (second compound 0.0949 µM, first compound 0.000316 µM) 90.4% | viability, T/C (second compound 0.0949 µM, first compound 0.001 µM) 93.9% | viability, T/C (second compound 0.0949 µM, first compound 0.00316 µM) 95.5% | viability, T/C (second compound 0.0949 µM, first compound 0.01 µM) 106% | viability, T/C [25] 68.7% | viability, T/C [26] 43.1% | viability, T/C (second compound 0.3 µM, first compound 0.000316 µM) 87.9% | viability, T/C (second compound 0.3 µM, first compound 0.001 µM) 105% | viability, T/C (second compound 0.3 µM, first compound 0.00316 µM) 103% | viability, T/C (second compound 0.3 µM, first compound 0.01 µM) 103% | viability, T/C [31] 71.8% | viability, T/C [32] 37.3%
7.13: pIC50 (second compound 0.0949 µM)

CC(Nc1ccc2c(c1)OCCn1cc(N3C(=O)OCC3C(F)F)nc1-2)C(N)=O (stereo not drawn) + CCn1c(-c2cccnc2C(C)OC)c2c3cc(ccc31)N1CCOC(CC(NC(=O)C(C(C)C)N(C)C(=O)C3(F)CCN(C(=O)C#CC(C)(C)N(C)C)CC3)C(=O)N3CCCC(N3)C(=O)OCC(C)(C)C2)C1
5.78: pIC50 (second compound 0.0949 µM)
5.77: pIC50 (second compound 0.00949 µM)
5.89: pIC50 (second compound 0.003 µM)
5.82: pIC50 (second compound 0.000949 µM) | pIC50 (second compound 0.3 µM)
inactive: viability, T/C [1] 103% | viability, T/C [2] 107% | viability, T/C [3] 92.1% | viability, T/C [4] 59.6% | viability, T/C [5] 34.2% | viability, T/C [6] 29% | viability, T/C [7] 106% | viability, T/C [8] 95.5% | viability, T/C [9] 92.9% | viability, T/C [10] 52.4% | viability, T/C [11] 36.8% | viability, T/C [12] 24.4% | viability, T/C [13] 95.4% | viability, T/C [14] 106% | viability, T/C [15] 87.8% | viability, T/C [16] 62.4% | viability, T/C [17] 35.7% | viability, T/C [18] 28.4% | viability, T/C [19] 98.4% | viability, T/C [20] 96.5% | viability, T/C [21] 87.1% | viability, T/C [22] 65.3% | viability, T/C [23] 41.7% | viability, T/C [24] 24.9% | viability, T/C [25] 93.9% | viability, T/C [26] 91.4% | viability, T/C [27] 88.5% | viability, T/C [28] 60.5% | viability, T/C [29] 36.1% | viability, T/C [30] 24.5% | viability, T/C [31] 93.4% | viability, T/C [32] 85.5% | viability, T/C [33] 83% | viability, T/C [34] 56.9% | viability, T/C [35] 36.6% | viability, T/C [36] 28%
5.68: pIC50 (second compound 0.03 µM)

C[C@@H](NC(=O)c1ncnc(N)c1Cl)c1ncc(C(=O)Nc2cc(C(F)(F)F)c(Cl)cn2)s1 + CCn1c(-c2cccnc2C(C)OC)c2c3cc(ccc31)N1CCOC(CC(NC(=O)C(C(C)C)N(C)C(=O)C3(F)CCN(C(=O)C#CC(C)(C)N(C)C)CC3)C(=O)N3CCCC(N3)C(=O)OCC(C)(C)C2)C1
< 5.00: pIC50 (second compound 0.000949 µM) | pIC50 (second compound 0.003 µM) | pIC50 (second compound 0.00949 µM) | pIC50 (second compound 0.03 µM) | pIC50 (second compound 0.0949 µM) | pIC50 (second compound 0.3 µM)
inactive: viability, T/C [1] 111% | viability, T/C [2] 107% | viability, T/C [3] 91.5% | viability, T/C [4] 106% | viability, T/C [5] 73.3% | viability, T/C [6] 61.4% | viability, T/C [7] 112% | viability, T/C [8] 94% | viability, T/C [9] 109% | viability, T/C [10] 92.5% | viability, T/C [11] 79.2% | viability, T/C [12] 66% | viability, T/C [13] 105% | viability, T/C [14] 108% | viability, T/C [15] 87.1% | viability, T/C [16] 88.5% | viability, T/C [17] 82.1% | viability, T/C [18] 73.6% | viability, T/C [19] 107% | viability, T/C [20] 99.3% | viability, T/C [21] 105% | viability, T/C [22] 91.7% | viability, T/C [23] 89.7% | viability, T/C [24] 64.9% | viability, T/C [25] 97.9% | viability, T/C [26] 96.1% | viability, T/C [27] 89.5% | viability, T/C [28] 91.4% | viability, T/C [29] 87.7% | viability, T/C [30] 73.9% | viability, T/C [31] 103% | viability, T/C [32] 101% | viability, T/C [33] 85.4% | viability, T/C [34] 87.1% | viability, T/C [35] 91.9% | viability, T/C [36] 80.1%

Reference: PubChem BioAssay AID2060909 (Molecular Pharmacology Branch, DTP, NCI, 2025)
